Data on 19 compounds can be found in patent publication EP0033503A2, “Medicaments with cytostatic activity and use of cyclic compounds, in which the heterocyclic N-ring atoms are substituted by several glycidyl groups, in pharmaceutical compositions” (Henkel Kommanditgesellschaft auf Aktien, priority 1980, dated 1981).

This test concerns Tumorart P 388 (Leukämie). The test is described as follows: Survival of mice bearing P 388 leukemia (NCI protocol 1200), T/C. Type of test: in vivo, Maus. The conditions noted are these: for response vs control in vivo at 200 mg/kg / response vs control in vivo at 50 mg/kg / response vs control in vivo at 100 mg/kg / response vs control in vivo at 25 mg/kg: Mus musculus; for T/C-Wert: unit not given; for Testergebnis in % T/C: repeat experiment; for durchschnittliche Lebensdauer der Testgruppe: 200 mg/kg per single dose. An excerpt:
Die nachfolgenden Versuche wurden durchgeführt nach Testvorschriften des National Cancer Institute Bethesda, Maryland 200014, veröffentlicht in Cancer Chemotherapy Reports" Part. 3, September 1972, Vol. 3, Nr. 2. Als Wirksubstanz wurde 1,3-Diglycidyl-benzimidazolon des i vorstehenden Beispiels 1 verwendet. Die Substanz wurde als wäßrige, 1%ige Injektionslösung unmittelbar vor der Applikation frisch hergestellt.
Bei Mäusen wurde gemäß Protokoll 1200 (Seite 91, c.) die Tumorart P 388 (Leukämie) i.p. mit 10^6 Zellen/Maus gesetzt. Die unbehandelten Tiere hatten eine mittlere überlebensdauer von 9,9 Tagen.
Es wird der Wirkstoff appliziert. Der Wirkstoff wird dabei in 9.Gaben in unterschiedlichen Versuchsreihen einmal zu je 200 mg/kg und in einer anderen zu 100 mg/kg und in einer dritten Versuchsreihe zu je 50 mg/kg verabreicht. In beiden Fällen wird eine signifikante Verlängerung der Lebensdauer der behandelten Testtiere gegenüber der Kontrollgruppe der nicht behandelten Tiere erzielt. […] Bei der Testgruppe mit der Dosis von 100 mg/kg beträgt die durchschnittliche Lebenserwartung der Versuchstiere 18 Tage, T/C 181 %. Die Gruppe mit der Dosis 50 mg/kg hatte eine durchschnittliche Lebenserwartung von 15,3 Tagen, T/C 154 %. […]

[1] abbreviates: P388, 200 mg/kg per single dose, 9 doses, first test series, read-out: Verlängerungsrate T/C (Testergebnis in % T/C).
Where [2] appears, read: P388, 50 mg/kg per single dose, first series, unit inferred, read-out: Testergebnis T/C (T/C-Wert).
The mark [3] stands for this setting: P388, 100 mg/kg per single dose, first series, unit inferred, read-out: Testergebnis T/C (T/C-Wert).
Where [4] appears, read: P388, 200 mg/kg per single dose, first series, unit inferred, read-out: Testergebnis T/C (T/C-Wert).
Where [5] appears, read: 100 mg/kg per single dose, 9 doses.
Where [6] appears, read: P388, 100 mg/kg per single dose, 9 doses, first test series, read-out: Verlängerungsrate T/C (Testergebnis in % T/C).
Setting [7] is: P388, read-out: Verlängerungsrate T/C (Testergebnis in % T/C), 50 mg/kg per single dose, 9 doses, first test series.
Where [8] appears, read: P388, read-out: Verlängerungsrate T/C (Testergebnis in % T/C), 100 mg/kg per single dose, 9 doses, first test series.
The mark [9] stands for this setting: P388, 50 mg/kg per single dose, 9 doses, first test series, read-out: Verlängerungsrate T/C (Testergebnis in % T/C).
[10] abbreviates: 50 mg/kg per single dose, 9 doses.
Setting [11] is: P388, read-out: Testergebnis T/C (T/C-Wert), 25 mg/kg, second series, unit inferred.
[12] abbreviates: P388, read-out: Testergebnis T/C (T/C-Wert), 50 mg/kg per single dose, first series, unit inferred.
[13] abbreviates: P388, read-out: Testergebnis T/C (T/C-Wert), 50 mg/kg, second series, unit inferred.
Where [14] appears, read: P388, read-out: Testergebnis T/C (T/C-Wert), 100 mg/kg per single dose, first series, unit inferred.
[15] abbreviates: P388, read-out: Testergebnis T/C (T/C-Wert), 100 mg/kg, second series, unit inferred.
The mark [16] stands for this setting: P388, read-out: Testergebnis T/C (T/C-Wert), 200 mg/kg, second series, unit inferred.

The structures appear in SMILES notation. Like-named read-outs stand apart in the source and are kept apart here.

Consider `CC1(C)C(=O)N(CC2CO2)C(=O)N1CN1C(=O)N(CC2CO2)C(=O)C1(C)C` (stereo not shown) [[drawing] r20], for which the response vs control in vivo at 200 mg/kg under setting [1] stood at 153%.
`O=c1n(-c2ccccc2)c(=O)n(CC2CO2)n1CC1CO1` (stereo not shown) [Beispiel 27, 1,2-Diglycidyl-4-phenylurazol] gave a T/C-Wert (25 mg/kg per single dose) of 120. The response vs control in vivo at 50 mg/kg under setting [2] was determined as 120%. For the same compound, the response vs control in vivo at 100 mg/kg under setting [3] stood at 150%. Besides, the response vs control in vivo at 200 mg/kg under setting [4] was found to be 200%.
As to `O=c1ccn(CC2CO2)c(=O)n1CC1CO1` (stereo not shown) [Beispiel 13, N,N'-Diglycidyluracil], under setting [5], the “durchschnittliche Lebenserwartung der Versuchstiere” value was 16,0 Tage. Also, the “Testergebnis in % T/C” value is reported as 152% (100 mg/kg) and 198% (200 mg/kg). Where the note is “9 doses”, the “durchschnittliche Lebensdauer der Testgruppe” value came out at 24 Tage. The response vs control in vivo at 25 mg/kg (P388, 25 mg/kg, second series, unit inferred, read-out: Testergebnis T/C (T/C-Wert)) is 114%. The response vs control in vivo at 50 mg/kg under setting [2] was found to be 131% and the response vs control in vivo at 50 mg/kg (P388, 50 mg/kg, second series, unit inferred, read-out: Testergebnis T/C (T/C-Wert)) is 124%. Moreover, the response vs control in vivo at 100 mg/kg reads like this: under setting [6], 153%; under setting [3], 156%; (P388, 100 mg/kg, second series, unit inferred, read-out: Testergebnis T/C (T/C-Wert)) 152%. Moreover, the response vs control in vivo at 200 mg/kg is, setting by setting: under setting [1], 230%; under setting [4], 230%; (P388, 200 mg/kg, second series, unit inferred, read-out: Testergebnis T/C (T/C-Wert)) 198%.
As to `O=c1c(F)cn(CC2CO2)c(=O)n1CC1CO1` (stereo not shown) [Diglycidyl-5-floururacil, N,N'-Diglycidyl-5-fluoruracil], under setting [2], the response vs control in vivo at 50 mg/kg was 179%. For the same compound, the response vs control in vivo at 100 mg/kg under setting [3] stood at 300%.
As to `O=c1c2c(ncn2CC2CO2)n(CC2CO2)c(=O)n1CC1CO1` (stereo not shown) [Beispiel 23, 1,3,7-Triglycidyl-xanthin], the response vs control in vivo at 50 mg/kg under setting [7] turned out to be 147%. Further, the response vs control in vivo at 100 mg/kg under setting [8] came to 147%. Further, where the note is “P388, read-out: Verlängerungsrate T/C (Testergebnis in % T/C), 200 mg/kg per single dose, 9 doses, first test series”, the response vs control in vivo at 200 mg/kg turned out to be 173%.
Consider `O=c1n(CC2CO2)c2cc(Cl)c(Cl)cc2n1CC1CO1` (stereo not shown) [R2 -Cl R3 -Cl, N,N-Diglycidyl-5,6-di-chlor-benzimidazolon], for which the response vs control in vivo at 50 mg/kg under setting [9] worked out at 158%. Moreover, the response vs control in vivo at 100 mg/kg under setting [6] stood at 120%.
Consider `O=c1c(Br)cn(CC2CO2)c(=O)n1CC1CO1` (stereo not shown) [Diglycidyl-5-bromuracil, N,N'-Diglycidyl-5-bromuracil], for which, under setting [2], the response vs control in vivo at 50 mg/kg stood at 173%. Under setting [3], the response vs control in vivo at 100 mg/kg worked out at 193%.
As for `CCCCCC(=O)c1ccc2c(c1)n(CC1CO1)c(=O)n2CC1CO1` (stereo not shown) [R2 -H R3 -C-C5H11 " O, N,N-Diglycidyl-5-caproyl-benzimidazolon], the response vs control in vivo at 50 mg/kg under setting [9] was 167%. Besides, under setting [6], the response vs control in vivo at 100 mg/kg was 198%. Further, the response vs control in vivo at 200 mg/kg under setting [1] came out at 130%.
`O=c1c(I)cn(CC2CO2)c(=O)n1CC1CO1` (stereo not shown) [Diglycidyl-5-joduracil, N,N'-Diglycidyl-5-ioduracil]: the response vs control in vivo at 50 mg/kg under setting [2] turned out to be 124%. Moreover, the response vs control in vivo at 100 mg/kg under setting [3] was found to be 166%. Moreover, under setting [4], the response vs control in vivo at 200 mg/kg is 189%.
For `CCC1(CC)C(=O)N(CC2CO2)C(=O)N(CC2CO2)C1=O` (stereo not shown) [Beispiel 10, 1,3-Diglycidyl-5,5-diethylbarbitursäure], the “durchschnittliche Lebenserwartung der Versuchstiere” value under setting [10] is 15,3 Tage and the “durchschnittliche Lebenserwartung der Versuchstiere” value under setting [5] turned out to be 22 Tage. For the same compound, the response vs control in vivo at 25 mg/kg under setting [11] amounted to 94%. Also, the response vs control in vivo at 50 mg/kg runs as follows: under setting [12], 147%; under setting [13], 111%; under setting [7], 147%. In addition, the response vs control in vivo at 100 mg/kg by setting is: under setting [14], 211%; under setting [15], 158%; under setting [8], 211%. The response vs control in vivo at 200 mg/kg under setting [16] turned out to be 230%.
As for `CC(C)CC1C(=O)N(CC2CO2)C(=O)N(CC2CO2)C1=O` (stereo not shown) [Beispiel 11, 1,3-Diglycidyl-5-isobutylbarbitursäure], the response vs control in vivo at 25 mg/kg under setting [11] stood at 129%. Also, the response vs control in vivo at 50 mg/kg is 133% under setting [12] and 158% under setting [13]. The response vs control in vivo at 100 mg/kg was 158% under setting [14] and 184% under setting [15]. Further, the response vs control in vivo at 200 mg/kg (P388, read-out: Testergebnis T/C (T/C-Wert), 200 mg/kg per single dose, first series, unit inferred) amounted to 194% and the response vs control in vivo at 200 mg/kg under setting [16] was determined as 252%.
`O=c1cnn(CC2CO2)c(=O)n1CC1CO1` (stereo not shown) [Beispiel 20, 2,4-Diglycidyl-2,3,4,5-tetrahydro-1,2,4-triazin-3,5-dion]: the response vs control in vivo at 50 mg/kg under setting [2] is 189%. Besides, the response vs control in vivo at 100 mg/kg under setting [3] amounted to 228%.
Consider `COc1ccc2c(c1)n(CC1CO1)c(=O)n2CC1CO1` (stereo not shown) [R2 -H R3 -O-CH3, N,N-Diglycidyl-5-methoxy-benzimidazolon], for which the response vs control in vivo at 50 mg/kg under setting [9] is 175%. In addition, the response vs control in vivo at 100 mg/kg under setting [6] stood at 225%.
Regarding `O=c1n(CC2CO2)c2ccc(Cl)cc2n1CC1CO1` (stereo not shown) [R2 -H R3 -Cl, N,N'-Digylcidyl-5-chlor-benzimidazolon], the “Testergebnis in % T/C” value is listed as 156% (25 mg/kg), 181% (50 mg/kg), 92% (100 mg/kg) and 145% (12,5 mg/kg). Further, the response vs control in vivo at 50 mg/kg under setting [7] was determined as 191%. Also, the response vs control in vivo at 100 mg/kg under setting [8] is 234%.
On to `O=c1n(CC2CO2)c(=O)n(CC2CO2)n1CC1CO1` (stereo not shown) [Beispiel 26, 1,2,4-Triglycidylurazol], for which the T/C-Wert is given as greater than 260 (25 mg/kg per single dose), 180 (6,25 mg/kg per single dose) and 230 (12,5 mg/kg per single dose). Also, the response vs control in vivo at 50 mg/kg under setting [2] was 298%.
`CC1(C)C(=O)N(CC2CO2)C(=O)N1CC1CO1` (stereo not shown) [1,3-Diglycidyl-5,5-dimethylhydantoin]: the “Testergebnis in % T/C” value (25 mg/kg) is given as 136%, the “Testergebnis in % T/C” value (50 mg/kg) turned out to be 151% and the “Testergebnis in % T/C” value (100 mg/kg) amounted to 239%. Moreover, the “durchschnittliche Lebenserwartung der Versuchstiere” value is listed as 15,7 Tage under setting [10] and 22 Tage under setting [5]. Also, under setting [9], the response vs control in vivo at 50 mg/kg came out at 158%. Further, the response vs control in vivo at 100 mg/kg under setting [6] was found to be 222%. Also, the “erhöhte Lebenserwartung gegenüber einer Kontrollgruppe nicht behandelter Versuchstiere” value (animal test at 100 mg/kg and 50 mg/kg) was no more than 220%.
`CCC1(c2ccccc2)C(=O)N(CC2CO2)C(=O)N1CC1CO1` (stereo not shown) [R5 CH3-CH2-R6 C6H5-, Diglycidyl-5-phenyl-5-ethylhydantoin]: the “Testergebnis in % T/C” value was 111% (50 mg/kg), 146% (100 mg/kg) and 188% (200 mg/kg). In addition, under setting [9], the response vs control in vivo at 50 mg/kg was 125%. In addition, the response vs control in vivo at 100 mg/kg under setting [6] was 156%. Moreover, the response vs control in vivo at 200 mg/kg under setting [1] was 222%.
As for `O=c1n(CC2CO2)c2ccccc2n1CC1CO1` (stereo not shown) [Beispiel 1, N,N'-Digylcidyl-Benzimidazolon], the “Testergebnis in % T/C” value runs as follows: (25 mg/kg) 133%; (50 mg/kg) 136%; (100 mg/kg) 161%; (200 mg/kg) 166%. Also, the “durchschnittliche Lebenserwartung der Versuchstiere” value under setting [10] is reported as 15,3 Tage and the “durchschnittliche Lebenserwartung der Versuchstiere” value under setting [5] came to 18 Tage. Further, the “durchschnittliche Lebensdauer der Testgruppe” value (9 doses) was found to be 20 Tage. In addition, the response vs control in vivo at 50 mg/kg under setting [9] was determined as 154%. In addition, under setting [6], the response vs control in vivo at 100 mg/kg came to 181%. Further, the response vs control in vivo at 200 mg/kg under setting [1] came to 202%.
Regarding `O=c1ccn(CC2CO2)c(=O)n1Cn1c(=O)ccn(CC2CO2)c1=O` (stereo not shown) [[drawing] the 18th table r17], under setting [2], the response vs control in vivo at 50 mg/kg is 115%. In addition, the response vs control in vivo at 100 mg/kg under setting [3] turned out to be 139%. In addition, under setting [4], the response vs control in vivo at 200 mg/kg is 186%.
